Source: patent publication US4855128A, “Saccharide inhibition of dental plaque” (priority 1988, dated 1989)
Read-outs that look alike come from different tables or passages of the source.

System: A. viscosus Tl4V-S. sanguis 34 coaggregation
Test: Coaggregation assay: inhibition of A. viscosus Tl4V-S. sanguis 34 coaggregation
Type: cell-based
Settings: for IC50: read-out: Concentration to effect 50% inhibition of coaggregation; for Rebound of coaggregation on increasing concentration: at concentrations above the 50% inhibition concentration; for Concentration to effect 50% inhibition of coaggregation: concentration in % (weight/volume basis); for Inhibition of coaggregation (in words): qualitative
Method: This Example describes an assay for determining the inhibition of coaggregation by various agents according to the invention and the results obtained thereby.
Streptococcus sanguis strain 34 (originally derived from human dental plaque), and Actinomyces viscosus Tl4V were grown in a medium containing the dialyzable portion of Trypticase and Yeast Extract, supplemented with salts and a carbon source, as follows: A concentrated stock solution (20×, to make 10 liters of growth medium) containing Trypticase Peptone (BBL, 170 grams) and Yeast Extract (40 grams) as prepared in a liter of distilled water. This solution was subsequently ultrafiltered in an Amicon model DC-2 hollow fiber ultrafiltration cell, using an HlP10-20 hollow fiber cartridge (molecular weight cut off of 10,000 daltons), and the filtrate (that material of <10,000 daltons molecular weight) saved. The material was concentrated to a final volume of approximately 100 ml, and then reconstituted to one liter, after which the procedure was repeated for a total of three cycles, saving the filtrates at each step. The filtrates were collected into a vessel chilled on ice, combined, and the total volume measured. This stock solution was distributed in aliquots sufficient to make one liter of medium, and stored at -20° C. until used.
To prepare the growth medium, the appropriate volume of the 10× stock Trypticase-Yeast Extract stock solution was thawed, and to it added (in grams per liter): NaCl, 5, and K2 HPO4, 2.5, and the volume adjusted to 1 liter with distilled water. The medium was sterilized by autoclaving. Where indicated, glucose was added as a carbon source to give a final concentration of 0.2%. Initially, this was done by aseptically adding filter-sterilized glucose solutions to the autoclaved medium. For later experiments, glucose was added to the growth medium prior to sterilization.
Streptococci were grown in medium containing 0.2% glucose. Starter cultures were prepared by inoculation from a frozen stock culture, and incubated overnight at 37° C. under aerobic (not anaerobic) conditions. This starter culture was used as a 0.5-1.0% inoculum to inoculate larger quantities of medium (100 ml-1 liter), which were subsequently incubated for 16 hours at 37° C. Growth conditions were similar for the actinomycete, except that they were grown under an anaerobic environment (10% hydrogen-5% carbon dioxide, and 85% nitrogen). The starter culture was incubated for 24-48 hours, but the larger cultures required 48 hours incubation.
After growth, the cells were collected by centrifugation (10,000 x g, 15 minutes, 4° C.) and washed three times in PBS (phosphate-buffered saline, 0.025 M, pH 8.0 containing 1.46g NaCl per liter). The cells were then suspended in PBS such that when the stock cell suspension was diluted 1:10, it would produce an Absorbance at 660 nm of between 0.22-0.24, equivalent to an initial Absorbance of 2.2-2.4. The cells were stored on ice for use during the day, but warmed to ambient temperature before initiation of coaggregation. Residual cells were stored for further use by resuspension in a solution of 50% glycerol in water, and stored at 4° C. On the day of use, the cells were then collected by centrifugation, washed twice with PBS, and the trubidity adjusted as described above.
Assays were performed in a final volume of 1.0 ml in 190×75 mm disposable culture tubes, in duplicate. Controls consisted of 0.8 ml of either cell suspension, and 0.2 ml PBS. The coaggregating mixtures contained 0.4 ml of each cell suspension, and PBS to make 1.0 ml. Inhibitors were added from stock solutions to give the desired final concentrations, and, where necessary, the salt concentrations adjusted using a double-strength (2X) PBS solution. The mixtures were mixed on a Vortex mixer for 10 seconds at a speed setting of 6, incubated at ambient temperature for 10 minutes, vortexed again, and allowed to stand for 2 hours. […]

[1] = average of two independent experiments

| Molecule | IC50 (Actinomyces viscosus, 2 h) [mM] | Concentration to effect 50% inhibition of coaggregation [1] [%] | other results |
| --- | --- | --- | --- |
| OC[C@H]1O[C@@H](O[C@@H]2[C@@H](CO)OC(O)(CO)[C@H]2O)[C@H](O)[C@@H](O)[C@H]1O (mixture of isomers) [Lactulose, reference compound] | 35 | – | – |
| OC[C@H]1OC(O)C[C@@H](O)[C@H]1O (stereo partly drawn) [2-deoxy-D-galactose, reference compound] | 20 | – | – |
| C[C@H]1OC(O)[C@H](O)[C@@H](O)[C@H]1O (stereo partly drawn) [D-Fructose (6-deoxy-D-galactose), 6-deoxy-D-galactose, reference compound] | 20 | – | – |
| O=C[C@H](O)[C@@H](O)[C@@H](O)[C@H](O)CO [Galactose, reference compound] | 22 | – | – |
| N[C@H]1C(O)O[C@H](CO)[C@H](O)[C@@H]1O (stereo partly shown) [Galactoseamine, reference compound] | – | – | IC50 (Table 1 carbohydrates, 2 hours, ambient temperature, average of independent experiments in duplicate (lactose n=13, galactose n=6)): 35 mM |
| O=C[C@H](O)[C@@H](O)[C@H](O)[C@H](O)CO [Glucose, reference compound] | > 100 | – | – |
| O=C[C@H](O)[C@@H](O)[C@H](O)[C@H](O)C(=O)O [Glucuronic acid] | 15 | – | Rebound of coaggregation on increasing concentration: then rebounds |
| O=C(O)[C@H](O)[C@@H](O)[C@H](O[C@@H]1O[C@H](CO)[C@H](O)[C@H](O)[C@H]1O)[C@H](O)CO [Lactobionic acid, 4-[beta-D-galactosido]-D-gluconic acid] | 3 to 4 | – | Rebound of coaggregation on increasing concentration: then rebounds; Rebound of coaggregation on increasing concentration (listed as lactobionic acid): rebound effect; Inhibition of coaggregation at the higher concentration (concentration increased up to 100 mM): 10% |
| OC[C@H]1O[C@@H](O[C@H]2[C@H](O)[C@@H](O)C(O)O[C@@H]2CO)[C@H](O)[C@@H](O)[C@H]1O (stereo partly shown) [Lactose, reference compound] | 3.6 | – | – |
| OC[C@H]1O[C@H](O[C@H]2[C@H](O)[C@@H](O)[C@H](O)O[C@@H]2CO)[C@H](O)[C@@H](O)[C@@H]1O [Maltose, reference compound] | > 100 | – | – |
| O=C[C@@H](O)[C@@H](O)[C@H](O)[C@H](O)CO [Mannose, reference compound] | > 100 | – | – |
| OC[C@H]1O[C@@](CO)(O[C@H]2O[C@H](CO)[C@@H](O)[C@H](O)[C@H]2O)[C@@H](O)[C@@H]1O [Sucrose, reference compound] | > 100 | – | – |
| OC[C@H]1O[C@H](O[C@H]2O[C@H](CO)[C@@H](O)[C@H](O)[C@H]2O)[C@H](O)[C@@H](O)[C@@H]1O [Trehalose, reference compound] | > 100 | – | – |
| Agar [reference compound] | – | > 0.2 | Inhibition of coaggregation (in words): did not demonstrate inhibition |
| Agarose [reference compound] | – | > 0.2 | Inhibition of coaggregation (in words): did not demonstrate inhibition |
| Chondroitin sulfate | – | 4 | Inhibition of coaggregation at 4% (at 4%): ~50%; Inhibition of coaggregation (in words): substantial inhibition |
| Guar gum | – | 0.15 | – |
| Pectin | – | 0.8 | Inhibition of coaggregation at 0.8% (at 0.8%): ~50%; Inhibition of coaggregation (in words): substantial inhibition |
| Polygalacturonic acid | – | 0.1 | – |
| Sodium alginate | – | – | Inhibition of coaggregation at 0.5% (at 0.5%, average of two independent experiments): 32%; Inhibition of coaggregation (in words): substantial inhibition |
| Soluble starch [reference compound] | – | – | Inhibition of coaggregation at 1.0% (at 1.0%, average of two independent experiments): 8%; Inhibition of coaggregation (in words): poor inhibition |
| Xanthan gum | – | 0.05 | – |
